In patent US9931327B2, “Derivatives of 1-phenyl-2-pyridinyl alkyl alcohols as phosphodiesterase inhibitors” (Chiesi Farmaceutici S.p.A., priority 2011, dated 2018):

Test system: LPS-induced TNF-α release in peripheral blood mononuclear cells (PBMCs)
Assay: In vitro determination of PDE4 inhibitory activity in the PBMCs assay (LPS-induced TNF-α release)
Assay type: cell-based, human
Conditions: PBMC; human PBMCs, LPS 3 ng/ml, 18 hours, TNF-α by ELISA; read-out: PDE4 inhibition (IC50, 50% inhibition of LPS-induced TNF-α release)
How it was run: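 Cryopreserved human PBMCs (10^5 cells/well) pre-incubated 30 min with compound (10^−12 to 10^−6 M or 10^−3 to 10^−7 M), then stimulated with LPS 3 ng/ml for 18 h at 37 °C. TNF-α in medium by ELISA; IC50 as mean ± 95% confidence limits.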

`COC(=O)c1cc(CN2CCCC2C(=O)O[C@@H](Cc2c(Cl)c[n+]([O-])cc2Cl)c2ccc(OC(F)F)c(OCC3CC3)c2)oc1C` (stereo partly drawn) [Compound 15, 3,5-dichloro-4-((2S)-2-(3-(cyclopropylmethoxy)-4-(difluoromethoxy)phenyl)-2-(1-((4-(methoxycarbonyl)-5-methylfuran-2-yl)methyl)pyrrolidine-2-carbonyloxy)ethyl)pyridine 1-oxide] was tested, and the IC50 was 1 to 10 nM.

For `CN(C)C(=O)c1cccc(S(=O)(=O)N2CCN(CC(=O)O[C@@H](Cc3c(Cl)c[n+]([O-])cc3Cl)c3ccc(OC(F)F)c(OCC4CC4)c3)CC2)c1` [Compound 121, (S)-3,5-dichloro-4-(2-(3-(cyclopropylmethoxy)-4-(difluoromethoxy)phenyl)-2-(2-(4-(3-(dimethylcarbamoyl)phenylsulfonyl)piperazin-1-yl)acetoxy)ethyl)pyridine 1-oxide], the IC50 was 0.1 to 1 nM.

`Nc1ccc(S(=O)(=O)N2CCOC(C(=O)O[C@@H](Cc3c(Cl)c[n+]([O-])cc3Cl)c3ccc(OC(F)F)c(OCC4CC4)c3)C2)cc1` (stereo partly drawn) [Compound 139, 4-((2S)-2-(4-(4-aminophenylsulfonyl)morpholine-2-carbonyloxy)-2-(3-(cyclopropylmethoxy)-4-(difluoromethoxy)phenyl)ethyl)-3,5-dichloropyridine 1-oxide] was tested, and the IC50 was < 0.1 nM.

Compound `O=C(O[C@@H](Cc1c(Cl)c[n+]([O-])cc1Cl)c1ccc(OC(F)F)c(OCC2CC2)c1)C1CN(S(=O)(=O)c2ccccc2)CCO1` (stereo partly drawn) [Compound 79, 3,5-dichloro-4-((2S)-2-(3-(cyclopropylmethoxy)-4-(difluoromethoxy)phenyl)-2-(4-(phenylsulfonyl)morpholine-2-carbonyloxy)ethyl)pyridine 1-oxide] has an IC50 of 0.1 to 1 nM.

`O=C(O[C@@H](Cc1c(Cl)c[n+]([O-])cc1Cl)c1ccc(OC(F)F)c(OCC2CC2)c1)C1SCCN1S(=O)(=O)c1cccs1` (stereo partly drawn) [Compound 62, 3,5-dichloro-4-((2S)-2-(3-(cyclopropylmethoxy)-4-(difluoromethoxy)phenyl)-2-(3-(thiophen-2-ylsulfonyl)thiazolidine-2-carbonyloxy)ethyl)pyridine 1-oxide] was tested, and the IC50 was 0.1 to 1 nM.

With `CN(C)C(=O)c1cccc(S(=O)(=O)N2CSC[C@H]2C(=O)O[C@@H](Cc2c(Cl)c[n+]([O-])cc2Cl)c2ccc(OC(F)F)c(OCC3CC3)c2)c1` [Compound 84, 3,5-dichloro-4-((S)-2-(3-(cyclopropylmethoxy)-4-(difluoromethoxy)phenyl)-2-((R)-3-(3-(dimethylcarbamoyl)phenylsulfonyl)thiazolidine-4-carbonyloxy)ethyl)pyridine 1-oxide] the IC50 was < 0.1 nM.

`CNS(=O)(=O)c1cccc(S(=O)(=O)N2CCSC2C(=O)O[C@@H](Cc2c(Cl)c[n+]([O-])cc2Cl)c2ccc(OC(F)F)c(OCC3CC3)c2)c1` (stereo partly drawn) [Compound 118, 3,5-dichloro-4-((2S)-2-(3-(cyclopropylmethoxy)-4-(difluoromethoxy)phenyl)-2-(3-(3-(N-methylsulfamoyl)phenylsulfonyl)thiazolidine-2-carbonyloxy)ethyl)pyridine 1-oxide] was tested, and the IC50 was < 0.1 nM.

In the case of `O=C(O[C@@H](Cc1c(Cl)c[n+]([O-])cc1Cl)c1ccc(OC(F)F)c(OCC2CC2)c1)C1SCCN1S(=O)(=O)c1ccsc1` (stereo partly drawn) [Compound 85, 3,5-dichloro-4-((2S)-2-(3-(cyclopropylmethoxy)-4-(difluoromethoxy)phenyl)-2-(3-(thiophen-3-ylsulfonyl)thiazolidine-2-carbonyloxy)ethyl)pyridine 1-oxide], the IC50 is reported as < 0.1 nM.

For `CN1CCN(C(=O)c2cccc(S(=O)(=O)N3CCSC3C(=O)O[C@@H](Cc3c(Cl)c[n+]([O-])cc3Cl)c3ccc(OC(F)F)c(OCC4CC4)c3)c2)CC1` (stereo partly drawn) [Compound 130, 3,5-dichloro-4-((2S)-2-(3-(cyclopropylmethoxy)-4-(difluoromethoxy)phenyl)-2-(3-(3-(4-methylpiperazine-1-carbonyl)phenylsulfonyl)thiazolidine-2-carbonyloxy)ethyl)pyridine 1-oxide], the IC50 was < 0.1 nM.

In the case of `Nc1ccc(S(=O)(=O)N2CCN(CC(=O)O[C@@H](Cc3c(Cl)c[n+]([O-])cc3Cl)c3ccc(OC(F)F)c(OCC4CC4)c3)CC2)cc1` [Compound 141, (S)-4-(2-(2-(4-(4-aminophenylsulfonyl)piperazin-1-yl)acetoxy)-2-(3-(cyclopropylmethoxy)-4-(difluoromethoxy)phenyl)ethyl)-3,5-dichloropyridine 1-oxide], the IC50 is reported as 0.1 to 1 nM.

With `CN(C)C(=O)c1cccc(S(=O)(=O)N2CCS[C@H]2C(=O)O[C@@H](Cc2c(Cl)c[n+]([O-])cc2Cl)c2ccc(OC(F)F)c(O)c2)c1` [Compound 263, 3,5-dichloro-4-((S)-2-(4-(difluoromethoxy)-3-hydroxyphenyl)-2-((S)-3-(3-(dimethylcarbamoyl)phenylsulfonyl)thiazolidine-2-carbonyloxy)ethyl)pyridine 1-oxide] the IC50 was 1 to 10 nM.

Compound `CNS(=O)(=O)c1ccc(S(=O)(=O)N2CCSCC2C(=O)O[C@@H](Cc2c(Cl)c[n+]([O-])cc2Cl)c2ccc(OC(F)F)c(OCC3CC3)c2)cc1` (stereo partly drawn) [Compound 81, 3,5-dichloro-4-((2S)-2-(3-(cyclopropylmethoxy)-4-(difluoromethoxy)phenyl)-2-(4-(4-(N-methylsulfamoyl)phenylsulfonyl)thiomorpholine-3-carbonyloxy)ethyl)pyridine 1-oxide] has an IC50 of 0.1 to 1 nM.

With `CS(=O)(=O)c1ccc(S(=O)(=O)N2CCS[C@H]2C(=O)O[C@@H](Cc2c(Cl)c[n+]([O-])cc2Cl)c2ccc(OC(F)F)c(OCC3CC3)c2)cc1` [Compound 109, 3,5-dichloro-4-((S)-2-(3-(cyclopropylmethoxy)-4-(difluoromethoxy)phenyl)-2-((S)-3-(4-(methylsulfonyl)phenylsulfonyl)thiazolidine-2-carbonyloxy)ethyl)pyridine 1-oxide] the IC50 was < 0.1 nM.

In the case of `N#Cc1ccccc1S(=O)(=O)N1CCS[C@H]1C(=O)O[C@@H](Cc1c(Cl)c[n+]([O-])cc1Cl)c1ccc(OC(F)F)c(OCC2CC2)c1` [Compound 200, 3,5-dichloro-4-((S)-2-((S)-3-(2-cyanophenylsulfonyl)thiazolidine-2-carbonyloxy)-2-(3-(cyclopropylmethoxy)-4-(difluoromethoxy)phenyl)ethyl)pyridine 1-oxide], the IC50 is reported as 0.1 to 1 nM.

In the case of `Nc1ccc(S(=O)(=O)N2CCS[C@H]2C(=O)O[C@@H](Cc2c(Cl)c[n+]([O-])cc2Cl)c2ccc(OC(F)F)c(OCC3CC3)c2)cc1` [Compound 150, 4-((S)-2-((S)-3-(4-aminophenylsulfonyl)thiazolidine-2-carbonyloxy)-2-(3-(cyclopropylmethoxy)-4-(difluoromethoxy)phenyl)ethyl)-3,5-dichloropyridine 1-oxide], the IC50 is reported as < 0.1 nM.

`NC(=O)Nc1cccc(S(=O)(=O)N2CCS[C@H]2C(=O)O[C@@H](Cc2c(Cl)c[n+]([O-])cc2Cl)c2ccc(OC(F)F)c(OCC3CC3)c2)c1` [Compound 269, 3,5-dichloro-4-((S)-2-(3-(cyclopropylmethoxy)-4-(difluoromethoxy)phenyl)-2-((S)-3-(3-ureidophenylsulfonyl)thiazolidine-2-carbonyloxy)ethyl)pyridine 1-oxide] was tested, and the IC50 was < 0.1 nM.

With `COc1ccc(S(=O)(=O)N2CCSC2C(=O)O[C@@H](Cc2c(Cl)c[n+]([O-])cc2Cl)c2ccc(OC(F)F)c(OCC3CC3)c2)cc1OC` (stereo partly drawn) [Compound 73, 3,5-dichloro-4-((2S)-2-(3-(cyclopropylmethoxy)-4-(difluoromethoxy)phenyl)-2-(3-(3,4-dimethoxyphenylsulfonyl)thiazolidine-2-carbonyloxy)ethyl)pyridine 1-oxide] the IC50 was < 0.1 nM.

In the case of `O=C(O[C@@H](Cc1c(Cl)c[n+]([O-])cc1Cl)c1ccc(OC(F)F)c(OCC2CC2)c1)[C@@H]1CCCCN1S(=O)(=O)c1ccc(N2CCOCC2)nc1` [Compound 111, 3,5-dichloro-4-((S)-2-(3-(cyclopropylmethoxy)-4-(difluoromethoxy)phenyl)-2-((S)-1-(6-morpholinopyridin-3-ylsulfonyl)piperidine-2-carbonyloxy)ethyl)pyridine 1-oxide], the IC50 is reported as 0.1 to 1 nM.
